Data: ChEMBL document CHEMBL2074320, “Polyspecific organic anion transporting polypeptides mediate hepatic uptake of amphipathic type II organic cations” (J Pharmacol Exp Ther, 1999)

Columns and labels:
[1] = target: T1, Solute carrier organic anion transporter family member 1A4 (Rattus norvegicus, UniProt O35913); test: (§1) TP_TRANSPORTER: uptake in Xenopus laevis oocytes; format: functional, cell-based; conditions: oocyte
T1 sequence (O35913 whole entry): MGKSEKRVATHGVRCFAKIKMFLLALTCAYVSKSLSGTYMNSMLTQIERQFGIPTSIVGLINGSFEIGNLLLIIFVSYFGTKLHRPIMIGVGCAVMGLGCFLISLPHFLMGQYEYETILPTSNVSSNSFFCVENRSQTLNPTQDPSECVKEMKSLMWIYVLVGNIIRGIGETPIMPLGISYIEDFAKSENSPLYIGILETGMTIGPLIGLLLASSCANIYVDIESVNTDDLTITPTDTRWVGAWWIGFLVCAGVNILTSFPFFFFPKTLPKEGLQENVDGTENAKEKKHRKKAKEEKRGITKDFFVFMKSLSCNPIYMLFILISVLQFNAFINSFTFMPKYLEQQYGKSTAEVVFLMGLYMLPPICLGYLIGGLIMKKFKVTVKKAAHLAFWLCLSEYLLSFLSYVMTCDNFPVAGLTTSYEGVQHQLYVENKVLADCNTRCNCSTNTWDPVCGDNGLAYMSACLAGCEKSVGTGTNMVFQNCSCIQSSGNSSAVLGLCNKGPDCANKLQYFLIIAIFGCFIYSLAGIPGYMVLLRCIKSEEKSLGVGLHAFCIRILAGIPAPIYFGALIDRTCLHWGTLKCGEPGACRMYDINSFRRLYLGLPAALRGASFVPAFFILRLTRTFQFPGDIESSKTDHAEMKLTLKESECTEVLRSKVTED

[2] = target: T2, Solute carrier organic anion transporter family member 1A1 (Rattus norvegicus, UniProt P46720); test: as §1; format: functional, cell-based; conditions: oocyte
T2 sequence (P46720 whole entry): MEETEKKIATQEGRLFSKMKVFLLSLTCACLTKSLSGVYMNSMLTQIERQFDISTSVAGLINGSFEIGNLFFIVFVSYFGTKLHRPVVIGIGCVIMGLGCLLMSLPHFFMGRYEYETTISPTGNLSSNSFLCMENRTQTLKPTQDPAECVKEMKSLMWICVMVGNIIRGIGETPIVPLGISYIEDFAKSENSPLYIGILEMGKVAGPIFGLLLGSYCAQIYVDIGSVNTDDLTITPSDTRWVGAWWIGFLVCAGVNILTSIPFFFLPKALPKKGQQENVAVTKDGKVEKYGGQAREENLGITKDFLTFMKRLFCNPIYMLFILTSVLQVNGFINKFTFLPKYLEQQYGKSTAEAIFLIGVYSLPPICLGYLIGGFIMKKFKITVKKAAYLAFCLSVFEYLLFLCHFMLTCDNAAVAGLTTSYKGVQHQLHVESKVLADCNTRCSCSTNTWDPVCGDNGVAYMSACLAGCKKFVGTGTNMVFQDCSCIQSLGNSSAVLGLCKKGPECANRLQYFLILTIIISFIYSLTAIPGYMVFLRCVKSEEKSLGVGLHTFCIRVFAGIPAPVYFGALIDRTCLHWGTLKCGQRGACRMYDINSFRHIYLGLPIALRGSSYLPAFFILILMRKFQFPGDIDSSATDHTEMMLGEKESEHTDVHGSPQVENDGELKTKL

[3] = target: T3, Solute carrier organic anion transporter family member 1A2 (OATP1A2) (Homo sapiens, UniProt P46721); test: as §1; format: functional, cell-based, Oocyte; conditions: Xenopus laevis oocytes expressing the transporter
T3 sequence (P46721 whole entry): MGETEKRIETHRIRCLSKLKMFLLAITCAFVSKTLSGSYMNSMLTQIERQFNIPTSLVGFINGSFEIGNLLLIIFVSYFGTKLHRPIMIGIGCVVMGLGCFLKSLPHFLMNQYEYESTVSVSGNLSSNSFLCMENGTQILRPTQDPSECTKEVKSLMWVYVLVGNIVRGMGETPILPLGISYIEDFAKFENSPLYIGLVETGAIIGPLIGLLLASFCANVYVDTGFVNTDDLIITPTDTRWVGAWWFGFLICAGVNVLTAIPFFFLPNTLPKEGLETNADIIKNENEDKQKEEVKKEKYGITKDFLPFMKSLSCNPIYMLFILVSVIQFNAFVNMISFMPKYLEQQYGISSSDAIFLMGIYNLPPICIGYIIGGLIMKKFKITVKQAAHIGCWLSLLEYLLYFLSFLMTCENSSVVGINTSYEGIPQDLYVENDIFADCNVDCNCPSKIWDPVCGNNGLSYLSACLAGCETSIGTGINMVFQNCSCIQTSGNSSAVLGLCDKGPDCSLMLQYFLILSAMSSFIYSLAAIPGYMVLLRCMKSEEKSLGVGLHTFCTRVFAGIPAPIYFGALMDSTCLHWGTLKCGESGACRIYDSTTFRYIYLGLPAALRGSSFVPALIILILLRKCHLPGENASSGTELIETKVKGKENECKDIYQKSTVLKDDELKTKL

[4] = target: T4, Solute carrier organic anion transporter family member 1A2 (Homo sapiens, UniProt P46721); test: as §1; format: functional, cell-based, Oocyte; conditions: oocyte
T4 sequence (P46721 whole entry): T3 sequence (P46721 whole entry)

SMILES | Activity [1] | Activity [2] | Km [3] | Activity [4]
C=C[C@H]1C[N+]2(C)CC[C@H]1C[C@H]2[C@H](O)c1ccnc2ccc(OC)cc12 | is not a substrate [-] | substrate [+] | 5.1 µM | –
C=CC[N+]1([C@H]2C[C@H]3[C@@H]4CC[C@H]5C[C@H](O)[C@@H](N6CCOCC6)C[C@]5(C)[C@H]4CC[C@]3(C)[C@H]2OC(C)=O)CCCC1 [ROCURONIUM] | substrate [+] | substrate [+] | – | substrate [+]
CCC1C[N+]2(CCCC3(C)N=N3)C3CC45c6ccccc6N(C)C4C2CC1C3C5O (configuration not stated) | substrate [+] | substrate [+] | – | substrate [+]
C=C[C@H]1C[N+]2(C)CC[C@H]1C[C@@H]2[C@@H](O)c1ccnc2ccc(OC)cc12 | is not a substrate [-] | is not a substrate [-] | 25.6 µM | –
